From patent publication US11912723B2, “KRAS modulators and uses thereof” (Quanta Therapeutics, Inc., priority 2022, dated 2024) come the findings set out here.

In general, IC50 refers to the concentration that gives 50% inhibition. High values mean weaker potency in that assay, low ones greater potency in that assay.

The target in test [1] is T1, GST-tagged KRAS G12D (2-169) (Homo sapiens, UniProt P01116, G12D).
T1 construct: GST-tagged KRAS^G12D (2-169, Reaction Biology, MSC-11-539); purchased Reaction Biology MSC-11-539 (KRAS G12D); MSC-11-502 (SOS1cat)
T1 sequence (P01116 2-169 isoform P01116-2 G12D): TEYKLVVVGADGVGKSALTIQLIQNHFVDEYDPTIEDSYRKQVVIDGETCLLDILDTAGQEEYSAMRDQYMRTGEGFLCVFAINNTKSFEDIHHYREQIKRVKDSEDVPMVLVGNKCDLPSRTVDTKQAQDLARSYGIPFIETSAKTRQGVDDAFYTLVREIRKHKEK
In words: Nucleotide exchange assay (NEA), HTRF of SOS-mediated GTP-DY-647P1 binding. The class given is biochemical. The note with it: 5 nM GST-KRAS G12D, 20 nM SOScat, 150 nM GTP; compound 1 h at RT. The essentials: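 After 1 h RT preincubation of compound with KRAS, SOS1cat (20 nM final) and fluorescent GTP analog (150 nM) were added to 5 nM KRAS; HTRF (anti-GST Tb donor) followed at RT for up to 90 min. % inhibition relative to DMSO and no-SOS1 blank, 4-parameter curve fit.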
In general terms: In TR-FRET formats the signal depends on donor and acceptor labels being close together.

For test [2], the system named is AGS (KRAS G12D) cells, phospho-ERK. Kind of test: pERK In Cell Western (ICW) assay (Method B). The class given is cell-based. To be noted: 3 hours. In short, it runs like this:
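AGS cells seeded at 5,000/well, grown overnight, then treated 3 h at 37 °C with ½-log 10-point dilutions (top 10 μM). Fixed cells stained for phospho-ERK, normalized to DRAQ5 DNA signal and to DMSO control; IC50 from 4-parameter variable-slope fit.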

Consider `CN1Cc2c(nc(OC[C@@]34CCCN3C[C@H](F)C4)nc2N2CCCCCC2)C[C@]12CCc1c(Cl)cccc12` [Compound 28A, (7S)-4-(azepan-1-yl)-4′-chloro-2-[[(2R,8S)-2-fluoro-1,2,3,5,6,7-hexahydropyrrolizin-8-yl]methoxy]-6-methyl-spiro[5,8-dihydropyrido[4,3-d]pyrimidine-7,1′-indane]], for which the half-maximal inhibitory concentration (IC50) in test [1] is 1000 to 20000 nM; in test [2] (Homo sapiens) it was more than 10 µM.

Regarding `N#CNC1CCCN(c2nc(OC[C@@]34CCCN3C[C@H](F)C4)nc3c2COC2(CCc4c(Cl)cccc42)C3)C1` (stereo partly drawn) [Compound 29, [1-[4′-chloro-2-[[(2R,8S)-2-fluoro-1,2,3,5,6,7-hexahydropyrrolizin-8-yl]methoxy]spiro[5,8-dihydropyrano[4,3-d]pyrimidine-7,1′-indane]-4-yl]-3-piperidyl]cyanamide], the IC50 was 100 to 1000 nM in test [1] and 1 to 10 µM in test [2] (Homo sapiens).

`CN(C)C(=O)c1cc2n(n1)CCCN(c1nc(OC[C@@]34CCCN3C[C@H](F)C4)nc3c1CN(C)C1(CCCc4ccc(O)cc41)C3)C2` (stereo partly drawn) [Compound 39, 5-[7′-hydroxy-6-methyl-2-[[(2R,8S)-2-fluoro-1,2,3,5,6,7-hexahydropyrrolizin-8-yl]methoxy]spiro[5,8-dihydropyrido[4,3-d]pyrimidine-7,1′-tetralin]-4-yl]-N,N-dimethyl-4,6,7,8-tetrahydropyrazolo[1,5-a][1,4]diazepine-2-carboxamide]: the IC50 in test [1] is less than 10 nM; in test [2] (Homo sapiens) it was 1 to 10 µM.

Take `CN(C)C(=O)c1cc2n(n1)CCCN(c1nc(OC[C@@]34CCCN3C[C@H](F)C4)nc3c1CN(C)[C@@]1(CCCc4ccc(O)cc41)C3)C2` [Compound 39A, 5-[(7S)-2-[[(2R,8S)-2-fluoro-1,2,3,5,6,7-hexahydropyrrolizin-8-yl]methoxy]-7′-hydroxy-6-methyl-spiro[5,8-dihydropyrido[4,3-d]pyrimidine-7,1′-tetralin]-4-yl]-N,N-dimethyl-4,6,7,8-tetrahydropyrazolo[1,5-a][1,4]diazepine-2-carboxamide]: the IC50 in test [1] is less than 10 nM; in test [2] (Homo sapiens), 0.1 to 1 µM.

As for `Cc1c(C(=O)N(C)C)nn2c1CN(c1nc(OC[C@@]34CCCN3C[C@H](F)C4)nc3c1CO[C@@]1(CCc4c(Cl)cccc41)C3)CCC2` [Compound 42, 5-[(7S)-4′-chloro-2-[[(2R,8S)-2-fluoro-1,2,3,5,6,7-hexahydropyrrolizin-8-yl]methoxy]spiro[5,8-dihydropyrano[4,3-d]pyrimidine-7,1′-indane]-4-yl]-N,N,3-trimethyl-4,6,7,8-tetrahydropyrazolo[1,5-a][1,4]diazepine-2-carboxamide], the 50% inhibitory concentration (IC50) in test [1] is less than 10 nM; in test [2] (Homo sapiens), 0.1 to 1 µM.

With `O=C(c1nn2c(c1Cl)CN(c1nc(OC[C@@]34CCCN3C[C@H](F)C4)nc3c1CO[C@@]1(CCc4c(Cl)cccc41)C3)CCC2)N1CCOCC1` [Compound 45, [3-chloro-5-[(7S)-4′-chloro-2-[[(2R,8S)-2-fluoro-1,2,3,5,6,7-hexahydropyrrolizin-8-yl]methoxy]spiro[5,8-dihydropyrano[4,3-d]pyrimidine-7,1′-indane]-4-yl]-4,6,7,8-tetrahydropyrazolo[1,5-a][1,4]diazepin-2-yl]-morpholino-methanone], the IC50 is less than 10 nM in test [1] and 0.1 to 1 µM in test [2] (Homo sapiens).

`C[C@@]1(NC#N)CCCN(c2nc(OC[C@@]34CCCN3C[C@H](F)C4)nc3c2COC2(CCc4c(Cl)cccc42)C3)C1` (stereo partly drawn) [Compound 46A, [(3R)-1-[(7*)-4′-chloro-2-[[(2R,8S)-2-fluoro-1,2,3,5,6,7-hexahydropyrrolizin-8-yl]methoxy]spiro[5,8-dihydropyrano[4,3-d]pyrimidine-7,1′-indane]-4-yl]-3-methyl-3-piperidyl]cyanamide; 2,2,2-trifluoroacetic acid]: the IC50 in test [1] was 100 to 1000 nM; in test [2] it was more than 10 µM.

In the case of `CN(C)C(=O)c1nn2c(c1Cl)CN(c1nc(OCC3(CN4CCOCC4)CC3)nc3c1CO[C@@]1(CCc4c(Cl)cccc41)C3)CCC2` [Compound 47, 3-chloro-5-[(7S)-4′-chloro-2-[[1-(morpholinomethyl)cyclopropyl]methoxy]spiro[5,8-dihydropyrano[4,3-d]pyrimidine-7,1′-indane]-4-yl]-N,N-dimethyl-4,6,7,8-tetrahydropyrazolo[1,5-a][1,4]diazepine-2-carboxamide], the IC50 in test [1] is less than 10 nM; in test [2] (Homo sapiens), 1 to 10 µM.

With `O=C(c1nn2c(c1Cl)CN(c1nc(OC[C@@]34CCCN3C[C@H](F)C4)nc3c1CO[C@@]1(CCc4c(Cl)cccc41)C3)CCC2)N1CCNCC1` [Compound 49, [3-chloro-5-[(7S)-4′-chloro-2-[[(2R,8S)-2-fluoro-1,2,3,5,6,7-hexahydropyrrolizin-8-yl]methoxy]spiro[5,8-dihydropyrano[4,3-d]pyrimidine-7,1′-indane]-4-yl]-4,6,7,8-tetrahydropyrazolo[1,5-a][1,4]diazepin-2-yl]-piperazin-1-yl-methanone], the values for the half-inhibitory concentration (IC50) in test [1] and in test [2] (Homo sapiens) were less than 10 nM and 0.1 to 1 µM, respectively.

As for `CN1CCN(C(=O)c2nn3c(c2Cl)CN(c2nc(OC[C@@]45CCCN4C[C@H](F)C5)nc4c2CO[C@@]2(CCc5c(Cl)cccc52)C4)CCC3)CC1` [Compound 50, [3-chloro-5-[(7S)-4′-chloro-2-[[(2R,8S)-2-fluoro-1,2,3,5,6,7-hexahydropyrrolizin-8-yl]methoxy]spiro[5,8-dihydropyrano[4,3-d]pyrimidine-7,1′-indane]-4-yl]-4,6,7,8-tetrahydropyrazolo[1,5-a][1,4]diazepin-2-yl]-(4-methylpiperazin-1-yl)methanone], the figures for the IC50 in test [1] and in test [2] (Homo sapiens) were less than 10 nM and 0.1 to 1 µM, respectively.

As for `CN(C)C(=O)c1nn2c(c1Cl)CN(c1nc(OC[C@@]34CCCN3C[C@H](F)C4)nc3c1CN(C)[C@@]1(CCc4ccccc41)C3)CCC2` [Compound 53, 3-chloro-5-[(7S)-2-[[(2R,8S)-2-fluoro-1,2,3,5,6,7-hexahydropyrrolizin-8-yl]methoxy]-6-methyl-spiro[5,8-dihydropyrido[4,3-d]pyrimidine-7,1′-indane]-4-yl]-N,N-dimethyl-4,6,7,8-tetrahydropyrazolo[1,5-a][1,4]diazepine-2-carboxamide], the IC50 in test [1] is less than 10 nM; in test [2] (Homo sapiens), 0.01 to 0.1 µM.

Regarding `CN(C)C(=O)c1nn2c(c1Cl)CN(c1nc(OC[C@@]34CCCN3C[C@H](F)C4)nc3c1CN(C)[C@@]1(CCc4c(Cl)cccc41)C3)CCC2` [Compound 55, 3-chloro-5-((S)-4-chloro-2′-(((2R,7aS)-2-fluorotetrahydro-1H-pyrrolizin-7a(5H)-yl)methoxy)-6′-methyl-2,3,5′,8′-tetrahydro-6′H-spiro[indene-1,7′-pyrido[4,3-d]pyrimidin]-4′-yl)-N,N-dimethyl-5,6,7,8-tetrahydro-4H-pyrazolo[1,5-a][1,4]diazepine-2-carboxamide], the IC50 in test [1] is less than 10 nM; in test [2] (Homo sapiens) it was 0.1 to 1 µM.

`CN1Cc2c(nc(OC[C@@]34CCCN3C[C@H](F)C4)nc2N2CCC[C@]3(C2)NC(=O)NC3=O)C[C@]12CCc1ccccc12` [Compound 60, (5R)-9-[(7S)-2-[[(2R,8S)-2-fluoro-1,2,3,5,6,7-hexahydropyrrolizin-8-yl]methoxy]-6-methyl-spiro[5,8-dihydropyrido[4,3-d]pyrimidine-7,1′-indane]-4-yl]-1,3,9-triazaspiro[4.5]decane-2,4-dione]: the values for the IC50 in test [1] and in test [2] (Homo sapiens) were 100 to 1000 nM and more than 10 µM, respectively.

`CN(C)C(=O)c1nn2c(c1Cl)CN(c1nc(OC[C@@]34CCCN3C[C@H](F)C4)nc3c1CN(C)[C@@]1(CCc4c(F)ccc(F)c41)C3)CCC2` [Compound 61, 3-chloro-5-[(7S)-4′,7′-difluoro-2-[[(2R,8S)-2-fluoro-1,2,3,5,6,7-hexahydropyrrolizin-8-yl]methoxy]-6-methyl-spiro[5,8-dihydropyrido[4,3-d]pyrimidine-7,1′-indane]-4-yl]-N,N-dimethyl-4,6,7,8-tetrahydropyrazolo[1,5-a][1,4]diazepine-2-carboxamide]: the IC50 is less than 10 nM in test [1] and 0.01 to 0.1 µM in test [2] (Homo sapiens).

Turning to `CN(C)C(=O)c1nn2c(c1Cl)CN(c1nc(OC[C@@]34CCCN3C[C@H](F)C4)nc3c1CN(C)[C@@]1(CCc4cccc(F)c41)C3)CCC2` [Compound 63, 3-chloro-5-[(7S)-7′-fluoro-2-[[(2R,8S)-2-fluoro-1,2,3,5,6,7-hexahydropyrrolizin-8-yl]methoxy]-6-methyl-spiro[5,8-dihydropyrido[4,3-d]pyrimidine-7,1′-indane]-4-yl]-N,N-dimethyl-4,6,7,8-tetrahydropyrazolo[1,5-a][1,4]diazepine-2-carboxamide], the IC50 is less than 10 nM in test [1] and 0.01 to 0.1 µM in test [2] (Homo sapiens).

In the case of `CN(C)C(=O)c1nn2c(c1Cl)CN(c1nc(OC[C@@]34CCCN3C[C@H](F)C4)nc3c1CN(C)[C@@]1(CCCc4ccccc41)C3)CCC2` [Compound 64, 3-chloro-5-[(7S)-2-[[(2R,8S)-2-fluoro-1,2,3,5,6,7-hexahydropyrrolizin-8-yl]methoxy]-6-methyl-spiro[5,8-dihydropyrido[4,3-d]pyrimidine-7,1′-tetralin]-4-yl]-N,N-dimethyl-4,6,7,8-tetrahydropyrazolo[1,5-a][1,4]diazepine-2-carboxamide], the IC50 is less than 10 nM in test [1] and 0.01 to 0.1 µM in test [2] (Homo sapiens).
